Assay results published in patent US10149887B2, “Peptides and peptidomimetics in combination with t cell activating and/or checkpoint inhibiting agents for cancer treatment” (CanBas Co., Ltd., priority 2015, dated 2018).
Like-named read-outs stand apart in the source and are kept apart here. Square brackets hold non-standard residues; d marks the D form. Peptide text beside a SMILES is read from it. dPhe(F5) = N[C@H](Cc1c(F)c(F)c(F)c(F)c1F)C(=O)O; dBpa = N[C@H](Cc1ccc(C(=O)c2ccccc2)cc1)C(=O)O; dCha = N[C@H](CC1CCCCC1)C(=O)O

Assays:
[1] = system: HUVEC; experiment: Growth of normal human umbilical endothelial cells (HUVEC); format: cell-based; conditions: peptide by itself
Procedure: Similar studies were performed using normal human umbilical endothelial cells (HUVEC).

[2] = Solubility in water
[3] = system: MIAPaCa2; conditions: three hours exposure
Procedure: The medium was changed and incubated an additional 24, 48 or 72 hour. Following incubation, 20 μl of alamarBlue 90% reagent was added to each well for another 6 hours for detection of cell viability by fluorescent intensity. Fluorescent intensity was measured using a Spectrafluor Plus plate reader with exitation 530 nm and emission 590 nm. The IC50 was calculated (Table 6).

[4] = system: MIAPaCa2 human pancreatic carcinoma cells; experiment: Colony formation analysis of MIAPaCa2 cells; format: cell-based; conditions: CBP501 10 μmM, cisplatin or oxaliplatin 1, 3 or 9 μg/ml, three hours, then 10 days
Procedure: Briefly, cells were plated at 300 cells/well in 6 well plates, incubated overnight, and treated with the compounds for three hours. The medium was changed and cultured for an additional 10 days. Cells were subsequently fixed with 70% methanol, stained with 0.1% crystal violet and visualized.

[5] = Maximal tolerated dose in mouse by single injection; conditions: in vivo, observed for a week
[6] = Mouse serum treatment analysis (residual CBP501 by HPLC); format: in vitro ADME; conditions: CBP501 10 mM, 37 degree
[7] = system: phospho-eIF2-alpha; experiment: CDDP-induced phosphorylation of eIF2-alpha in CT26WT cells (immunoblotting); format: cell-based, murine; conditions: 10-20 uM CDDP with 0.5 μM CBP501, 45 min
Procedure: A day later, cells were collected and analyzed by immunoblotting using specific antibody against phospho-eIF2-alpha (n=8) (FIG. 22A) and the amount of relative Phospho-eIF2-alpha was quantitated (FIG. 22B). Samples were compared by student's t-test. *P<0.05 **P<0.01, compared with untreated cells, and ^†P<0.05, ^††P<0.01, compared with the corresponding CDDP alone.
(§1) After changing with fresh drug-free medium, cells were incubated for 24, 48, or 72 hours for Immunoblotting analysis of phospho-eIF2-alpha, for calreticulin analysis by FACS, or for HMGB1 ELISA.
Cells were lysed by incubating with a buffer [NaCl (100 mM), Tris-HCl (50 mM, pH 8.0), DTT (1 mM), NP40 (0.5% w/v) containing PhosSTOP Phosphatase Inhibitor Cocktail and Complete Proteinase Inhibitor Cocktail Tablets (Roche Life Science) each diluted to the manufacturer's specified concentrations] at 4° C. for 30 minutes and centrifuged (15 000 rpm, 4° C., 20 minutes). The supernatant (whole-cell lysate) was electrophoresed (SDS-PAGE), and transferred from the gel onto a polyvinylidene difluoride (PVDF) membrane (Millipore) by electroblotting. […] Images were recorded with a Luminescent Image Analyzer LAS-4000 system (Fujifilm) and quantified the band intensity with Multi Gauge software (Fujifilm).

[8] = system: HMGB1; experiment: HMGB1 secretion from CT26WT cells (ELISA); format: cell-based, murine; conditions: 20 μM CDDP with 0.5 μM CBP501, 45 min
Procedure: Secreted HMGB1 into the medium was collected at 24, 48 and 72 hours after treatment (n=3). Quantification of the secreted HMGB1 was conducted by HMGB1 ELISA kit II. Samples were compared by student's t-test. *P<0.05 **P<0.01, compared with untreated control cells, and ^†P<0.05, ^††P<0.01, compared with the corresponding CDDP alone.
as §1
The secreted HMGB1 to the medium was quantificated by HMGB1 ELISA kit II (SINO-TEST CORPORATION, kanagawa, Japan) according to manufacturer's instructions.

[9] = system: RAW264.7; experiment: TNF release from macrophage cell line RAW264.7 (ELISA); format: cell-based, mouse; conditions: 0.1 or 1 μM CBP501, LPS
Procedure: The released TNF were measured by ELISA.

[10] = system: MIAPaCa2; experiment: Sensitization of MIAPaCa2 to bleomycin or adriamycin (sub-G1 population, flow cytometry); format: cell-based, human; conditions: bleomycine 10 μg/ml or adriamycin 1 μg/ml, 3 hours, then 21 hours
Text: FIGS. 3A and 3B Human pancreatic cancer derived cell line MIAPaCa2 treated with (FIG. 3A) bleomycin (Bleo) or (FIG. 3B) adriamycin (ADR) with various doses of compounds. Harvested cells were stained for their DNA and analyzed with flow cytometry. The % population of sub-G1 cells are indicated as dead cells.
The G2 checkpoint abrogating activity of various compounds at different doses on human pancreatic cancer derived cell line MIAPaCa2 treated with bleomycine (Bleo) or adriamycin (ADR) was studied. Briefly, cells were incubated with the compounds and bleomycine (10 μg/ml) or adriamycin (1 μg/ml) for 3 hours. The medium was changed and incubated for an additional 21 hours. Harvested cells were stained for DNA by propium iodide and analyzed with flow cytometry as previously described. The % of the sub-G1 cell population is indicated as dead cells in FIG. 3.

[11] = system: CBP501-sensitive human cancer cell lines; experiment: Intracellular accumulation of CDDP; format: cell-based
[12] = system: Jurkat cells; experiment: Side effect of peptide used alone: Jurkat cell cycle disturbance (flow cytometry); format: cell-based; conditions: dose that produced Jurkat cell cycle disturbance, peptide alone
Summary of the method: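 Cell-cycle profiles were obtained by flow cytometry after propidium iodide staining in Krishan's solution for 1 hr at 4 °C. The value is the peptide dose given alone that disturbed the cell cycle, seen as significant SubG1 (dead) cells or unusually variable DNA content.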

[13] = system: neutrophils; experiment: NET formation by activated neutrophils (elastase activity); format: cell-based, human; conditions: 1 μM CBP501; PMA, A23187 or LPS
Text: Referring to FIG. 17, Neutrophils were purified with EasySep neutrophil enrichment kit (Stemcell technol.) from human peripheral blood after removal of red blood cells with Hetasep (Stemcell technol.).

## N=C(N)NCCC[C@@H](NC(=O)[C@@H](CCCNC(=N)N)NC(=O)[C@@H](CCC(N)=O)NC(=O)[C@@H](CCCNC(=N)N)NC(=O)[C@@H](CCCNC(=N)N)NC(=O)[C@@H](CCCNC(=N)N)NC(=O)[C@@H](CC1CCCCC1)NC(=O)[C@@H](Cc1c(F)c(F)c(F)c(F)c1F)NC(=O)[C@@H](CO)NC(=O)[C@@H](Cc1c[nH]c2ccccc12)NC(=O)[C@@H](CO)NC(=O)[C@H](N)Cc1ccc(C(=O)c2ccccc2)cc1)C(=O)O [CBP501, (d-Bpa)(d-Ser)(d-Trp)(d-Ser)(d-Phe-2,3,4,5,6-F)(d-Cha)(d-Arg)(d-Arg)(d-Arg)(d-Gln)(d-Arg)(d-Arg)] (H-[dBpa][dS][dW][dS][dPhe(F5)][dCha][dR][dR][dR][dQ][dR][dR]-OH; N-terminus and C-terminus assumed)
[1]
  Growth of normal cells (HUVEC): does not affect the growth of HUVEC cells
[2]
  Solubility in water: soluble in water
[3]; read-out: IC50 24 hr, CBP501 with 10 uM cisplatin, with 10 uM cisplatin, additional 24 hour
  IC50: 0.6 µM
[3]; read-out: IC50 24 hr, additional 24 hour
  IC50: 6 µM
[3]; read-out: IC50 48 hr, CBP501 with 10 uM cisplatin, with 10 uM cisplatin, additional 48 hour
  IC50: 1 µM
[3]; read-out: IC50 48 hr, additional 48 hour
  IC50: 10 µM
[3]; read-out: IC50 72 hr, CBP501 with 10 uM cisplatin, with 10 uM cisplatin, additional 72 hour
  IC50: 6 µM
[3]; read-out: IC50 72 hr, additional 72 hour
  IC50: 13 µM
[4]
  Enhancement of cyto-toxic activity of cisplatin and oxaliplatin, colony formation: enhanced the cyto-toxic activity of both cisplatin and oxaliplatin
[5]; ip, single intra-peritoneal injection, read-out: MTD (ip)
  MTD at 1 week: 98.8 mg/kg
[5]; single intravenous injection, read-out: MTD (iv)
  MTD at 1 week: 10 mg/kg
[6]
  Residual peptide after 1 hr mouse serum treatment (Mouse serum treatment analysis): >90%
[7]
  CDDP-induced phosphorylation of eIF2-alpha: augmented
[8]
  HMGB1 release, CDDP combined with CBP501 vs CDDP alone: about 2 times
[9]
  Cytokine secretion (TNF release) of macrophages: Inhibition of cytokine secretion
[10]
  Sensitization of MIAPaCa2 cells to bleomycin and adriamycin (% sub-G1, dead cells): sensitized MIAPaCa2 cells to both bleomycin and adriamycin in a dose dependent manner
[11]
  Intracellular accumulation of CDDP, CDDP combined with CBP501 vs CDDP alone: 1.5 to 3 times
[12]
  Appearance of side effect when used alone: >50 µM
[13]
  NET formation by activated neutrophils: increased NET formation
